Measurements from patent US11370779B2, “Pharmaceutical composition for preventing or treating acute myeloid leukemia or metastatic breast cancer” (PELEMED CO., LTD., priority 2017, dated 2022).
Read-outs that look alike come from different tables or passages of the source.

Columns and labels:
MV4;11 xenograft = experiment: MV4;11 mouse tumor xenograft, intravenous LDD1937; type: in vivo
Protocol: The drug or the control PBS was injected daily for a duration of 21 days.

PC-3 cells = experiment: Cytotoxicity assay, PC-3; type: cell-based; conditions: Homo sapiens, mean ± S.D.
Protocol: MDA-MB-231 (metastatic breast cancer, ATCC HTB-26), Jurkat (human acute T lymphocytic leukemia, ATCC TIB-152), and K-562 (human chronic myelogenous leukemia, ATCC CCL-243) cells were cultured in RPMI-1640 (Sigma Co.). MCF7 (human breast adenocarcinoma, ATCC HTB-22) and PC-3 (human prostate adenocarcinoma, ATCC CRL-1435) cells were cultured in DMEM (Sigma Co.) medium supplemented with 10% fetal bovine serum and 1% penicillin/streptomycin. The cultured cells were incubated at […] with 5% CO2. Cell viability was assessed by a tetrazolium-based assay using the EZ-Cytox Cell Viability Assay kit (DaeilLab, Korea). […] The next day, the cells were treated with compounds together with dimethyl sulfoxide (DMSO) as a negative control. Three days (72 hours) after the drug addition, 15 μl of the EZ-Cytox kit reagent was added to each well of the 96-well plate and then incubated at 37° C. in a humidified CO2 incubator for 4 hours. After incubation, the optical density (OD) was measured at a wavelength of 450 nm using a Victor multilabel reader (Perkin Elmer, Waltham, Mass., USA). The IC50 was calculated by nonlinear regression using Prism version 5.01 (GraphPad, La Jolla, Calif., USA).

MV4;11 cells = experiment: Cell viability, EZ-Cytox tetrazolium assay, MV4;11; type: cell-based, human
Protocol: The cultured cells were incubated at 3° C. with 5% CO2.
(§1) Cell viability was assessed by a tetrazolium-based assay using the EZ-Cytox Cell Viability Assay kit (DaeilLab, Korea). Briefly, 2,000 to 15,000 cells were plated in 96-well plates in 100 μl of medium. The next day, the cells were treated with compounds together with dimethyl sulfoxide (DMSO) as a negative control. Three days (72 hours) after the drug addition, 15 μl of the EZ-Cytox kit reagent was added to each well of the 96-well plate and then incubated at 37° C. in a humidified CO2 incubator for 4 hours. After incubation, the optical density (OD) was measured at a wavelength of 450 nm using a Victor multilabel reader (Perkin Elmer, Waltham, Mass., USA).

cMET = cMET (Homo sapiens (Human), UniProt P08581); experiment: cMET in vitro kinase HTRF assay; type: biochemical; conditions: mean ± S.D.
cMET, sequence (P08581 25-1390): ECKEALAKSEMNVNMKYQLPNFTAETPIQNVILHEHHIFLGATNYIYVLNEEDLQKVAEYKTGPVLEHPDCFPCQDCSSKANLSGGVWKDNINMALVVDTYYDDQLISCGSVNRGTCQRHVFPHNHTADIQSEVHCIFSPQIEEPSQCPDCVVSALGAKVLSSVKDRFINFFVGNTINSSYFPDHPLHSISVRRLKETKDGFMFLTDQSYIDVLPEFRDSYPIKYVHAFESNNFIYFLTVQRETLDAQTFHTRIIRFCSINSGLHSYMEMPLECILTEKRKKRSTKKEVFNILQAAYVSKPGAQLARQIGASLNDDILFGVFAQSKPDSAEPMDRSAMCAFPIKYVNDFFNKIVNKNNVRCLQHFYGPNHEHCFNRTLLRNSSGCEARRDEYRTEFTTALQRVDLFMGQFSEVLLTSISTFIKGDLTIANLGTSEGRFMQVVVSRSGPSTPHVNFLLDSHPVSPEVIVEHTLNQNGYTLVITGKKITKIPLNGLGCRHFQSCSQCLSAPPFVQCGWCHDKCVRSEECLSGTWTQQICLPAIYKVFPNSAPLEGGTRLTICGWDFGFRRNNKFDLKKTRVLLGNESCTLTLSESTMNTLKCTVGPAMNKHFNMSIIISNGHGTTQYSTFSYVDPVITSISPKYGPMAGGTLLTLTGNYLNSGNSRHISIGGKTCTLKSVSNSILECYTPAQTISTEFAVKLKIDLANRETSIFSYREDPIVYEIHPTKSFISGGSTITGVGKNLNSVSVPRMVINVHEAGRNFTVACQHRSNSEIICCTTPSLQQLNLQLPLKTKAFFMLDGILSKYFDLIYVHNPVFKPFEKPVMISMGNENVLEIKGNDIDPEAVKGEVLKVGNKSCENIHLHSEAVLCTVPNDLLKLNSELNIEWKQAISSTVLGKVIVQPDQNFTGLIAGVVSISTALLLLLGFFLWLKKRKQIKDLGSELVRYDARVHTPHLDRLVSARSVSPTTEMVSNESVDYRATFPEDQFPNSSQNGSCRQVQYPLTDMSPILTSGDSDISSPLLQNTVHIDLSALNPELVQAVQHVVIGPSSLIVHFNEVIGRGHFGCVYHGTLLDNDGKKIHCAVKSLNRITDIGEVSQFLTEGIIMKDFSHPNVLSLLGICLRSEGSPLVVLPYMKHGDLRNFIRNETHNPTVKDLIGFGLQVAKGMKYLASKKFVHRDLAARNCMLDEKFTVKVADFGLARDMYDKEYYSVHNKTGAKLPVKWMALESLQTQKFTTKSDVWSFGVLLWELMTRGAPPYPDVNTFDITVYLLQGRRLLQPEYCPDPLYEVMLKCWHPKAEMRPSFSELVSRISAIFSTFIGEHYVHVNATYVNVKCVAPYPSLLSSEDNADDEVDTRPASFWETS
Protocol: (§2) Inhibition of the FLT3 kinase activity was measured using homogeneous, time-resolved fluorescence (HTRF) assays. Recombinant proteins containing the FLT3 kinase domain were purchased from Carna biosciences (Japan). Optimal enzyme, ATP, and substrate concentrations were established using the HTRF KinEASE kit (Cisbio, France) according to the manufacturer's instructions. The FLT3 enzymes were mixed in sequence with diluted compounds and peptide substrates in a kinase reaction buffer (50 mM HEPES (pH 7.0), 500 μM ATP, 0.1 mM sodium orthovanadate, 5 mM MgCl2, 1 mM DTT, 0.01% bovine serum albumin (BSA), and 0.02% NaN3). After the addition of the reagents for detection, the TR-FRET signal was measured using a Victor multilabel reader (Perkin Elmer, Waltham, Mass., USA). The IC50 was calculated by nonlinear regression using Prism version 5.01 (GraphPad). JAK2, JAK3, cMET, and RET in vitro kinase assays were also performed using the HTRF assay.

FLT3 kinase = FLT3 kinase (Homo sapiens (Human), UniProt P36888); experiment: In vitro FLT3 kinase HTRF assay (Example 2); type: biochemical; conditions: FLT3 vs JAK2, JAK3, cMET, IRAK4
FLT3 kinase, sequence (P36888 610-943): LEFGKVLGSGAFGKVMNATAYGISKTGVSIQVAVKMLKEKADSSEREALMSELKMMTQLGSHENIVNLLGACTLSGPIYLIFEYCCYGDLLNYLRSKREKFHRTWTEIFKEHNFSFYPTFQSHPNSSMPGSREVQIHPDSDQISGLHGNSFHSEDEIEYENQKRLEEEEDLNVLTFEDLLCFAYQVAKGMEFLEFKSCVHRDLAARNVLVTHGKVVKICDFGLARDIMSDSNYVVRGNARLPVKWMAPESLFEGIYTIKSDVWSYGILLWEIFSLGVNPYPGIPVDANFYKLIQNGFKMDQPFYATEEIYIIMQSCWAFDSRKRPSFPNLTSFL
Protocol: as §2, with “The IC50 was calculated by nonlinear regression using Prism version 5.01 (GraphPad).” left out

HepG2 (liver cancer) = experiment: WST anti-proliferative assay, HepG2; type: cell-based; conditions: Homo sapiens
Protocol: (§3) (Table 6) Compound 33 (LDD-2635) was tested at 8 concentrations to measure their anti-proliferative effects on various human cancer cell lines using WST assay. The GI50 values were obtained in triplicate and the error bars represent the standard error of the mean.

HCT-116 (colon cancer) = experiment: WST anti-proliferative assay, HCT-116; type: cell-based; conditions: Homo sapiens, HCT-116, read-out: % inhibition at 1 μM, HCT-116
Protocol: as §3

SK-OV-3 (ovarian cancer) = experiment: WST anti-proliferative assay, SK-OV-3; type: cell-based; conditions: Homo sapiens, SK-OV-3, read-out: % inhibition at 1 μM, SK-OV-3
Protocol: as §3

MOLM14 Wild type = experiment: Cell proliferation MTT assay, MOLM14 wild type; type: cell-based; conditions: Homo sapiens, MOLM-14
Description: (§4) MOLM14 were purchased from the ATCC and the cells were maintained in RPMI medium (Hyclone) with 10% Fetal bovine serum (Gibco) and 1% penicillin/streptomycin.

MOLM14 FLT3-ITD-D835Y = experiment: Cell proliferation MTT assay, MOLM14-ITD-D835Y; type: cell-based, human; conditions: Homo sapiens, MOLM-14
Protocol: as §4
Mutagenesis is performed in FLT3-ITD MSCV plasmid using Q5 site-directed mutagenesis kit (E05545). […] Retroviral particles were produced by transiently transfecting HEK293T cells with Retroviral vectors together with packaging vectors, GPE and VSVG. 48 h after transfection, media containing viral particles were collected and filtered for infection. Viral particles were infected to MOLM14 cells and 48 h after infection, infected cells were selected with puromycin (1 μg/mL).

MDA-MB-231 = experiment: Cell viability, EZ-Cytox tetrazolium assay, MDA-MB-231; type: cell-based, human; conditions: Homo sapiens, MDA-MB-231; 72 hours
Protocol: MDA-MB-231 (metastatic breast cancer, ATCC HTB-26), Jurkat (human acute T lymphocytic leukemia, ATCC TIB-152), and K-562 (human chronic myelogenous leukemia, ATCC CCL-243) cells were cultured in RPMI-1640 (Sigma Co.). MCF7 (human breast adenocarcinoma, ATCC HTB-22) and PC-3 (human prostate adenocarcinoma, ATCC CRL-1435) cells were cultured in DMEM (Sigma Co.) medium supplemented with 10% fetal bovine serum and 1% penicillin/streptomycin. The cultured cells were incubated at 3° C. with 5% CO2.
as §1, with “USA). The IC50 was calculated by nonlinear regression using Prism version 5.01 (GraphPad, La Jolla, Calif., USA).” for “USA).”

MDA-MB-231 xenograft = experiment: MDA-MB-231 mouse tumor xenograft; type: in vivo; conditions: 20 mg/kg/p.o/day, 4 weeks
Protocol: 6-weeks-old Balb/c nu/nu mice (female) were purchased from Central Lab. Animal Inc. to be used. […] The candidate substances LDD-2614 (Compound 21), 2633 (Compound 28), 2634 (Compound 34), 2635 (Compound 33) were administered at 20 mg/kg/p.o/day, and doxorubicin, which was a control, was administered at 5 mg/kg/i.p (once a week) for 4 weeks.

MV4-11 xenograft = experiment: MV4-11 mouse tumor xenograft, oral administration
Protocol: The drug or the control PBS was administered daily for a duration of 21 days. Tumor sizes were measured twice a week for 21 days, and the tumor volumes were calculated with the following formula: V (volume)=X (length)×D (width)2/2. After 21 days, the mice were sacrificed, and the tumor weights were measured.
An in vivo MV4-11 xenograft study was performed to determine the efficacy of the indirubin derivatives. MV4-11 cells were subcutaneously injected into BALB/c nu/nu mice, and tumors were allowed to grow to a size of approximately 100 mm^3.

PC3 (prostate cancer) = experiment: WST anti-proliferative assay, PC3; type: cell-based; conditions: Homo sapiens, read-out: % inhibition at 1 μM, PC3
Protocol: as §3

MV4-11 cells = experiment: Cytotoxicity WST assay, MV4-11 (Example 3); type: cell-based, human; conditions: for GI50: Homo sapiens, MV4-11, WST assay
Protocol: Test 96-well plates were incubated at 37° C. with 5% CO2 for 72 h. After 72 h incubation, 10 μL of the EZ-Cytox kit reagent from EZ-cytox Cell viability assay kit (DaeilLab, Korea) were added to each well of the 96-well plate and then incubated at 37° C. with 5% CO2 for 3 h. […] The IC50 values were calculated with nonlinear regression analysis using OriginPro 9.1 software (OriginLab, Northampton, Mass.). […] The GI50 values were obtained in triplicate and the error bars represent the standard error of the mean.

A549 (lung cancer) = experiment: WST anti-proliferative assay, A549; type: cell-based; conditions: Homo sapiens, A549, read-out: % inhibition at 1 μM, A549
Protocol: as §3

[1] = system: MOLM14 FLT3-ITD (MOLM14-ITD); experiment: Cell proliferation MTT assay, MOLM14-ITD; type: cell-based; conditions: Homo sapiens, MOLM-14
Protocol: as §4
Viral particles were infected to MOLM14 cells and 48 h after infection, infected cells were selected with puromycin (1 μg/mL).

[2] = Homo sapiens, MV4-11, 72 hours, read-out: GI50(nM) MV4;11

Structure (SMILES): COC(=O)c1ccc2c(c1)/C(=C1/Nc3ccccc3/C1=N\OCCN1CCNCC1)C(=O)N2.Cl.Cl [Compound 4, Methyl (2Z,3E)-2′-oxo-3-((2-(piperazin-1-yl)ethoxy)imino)-[2,3′-biindolinylidene]-5′-carboxylate dihydrochloride]
- day from which the tumor disappeared (MV4;11 xenograft; 10 mg/kg i.v. daily, based on measured tumor volume): 3 days
- body weight during the administration period (MV4;11 xenograft; 5 or 10 mg/kg i.v., 21 days, between groups): no significant difference in body weight
- GI50 (PC-3 cells): 1.1 ± 0.14 µM
- increase of activity against MV4;11 compared to Compound 1 (MV4;11 cells): 40 fold
- GI50 (MV4;11 cells; [2]): 1 nM
- IC50 (MV4;11 cells; Homo sapiens, MV4-11, Table 1, 72 hours): 1 nM
- GI50 (MV4;11 cells; Homo sapiens, MV4-11, Table 4, mean ± S.D., read-out: GI50 (μM) MV-4-11): 1.2 ± 0.15 nM
- IC50 (cMET): 0.25 ± 0.074 µM
- difference in the IC50 between FLT3 and other kinases (FLT3 kinase): ≥ 170 fold

Structure (SMILES): Cl.Cl.O=C1Nc2ccc(F)cc2/C1=C1/Nc2ccccc2/C1=N\OCCN1CCNCC1 [Compound 33, (2Z,3E)-5′-fluoro-3-((2-(piperazin-1-yl)ethoxy)imino)-[2,3′-biindolinylidene]-2′-one dihydrochloride]
- GI50 (HepG2 (liver cancer)): 1.1 ± 0.2 µM
- inhibition at 1 µM (HCT-116 (colon cancer)): 38.5%
- inhibition at 1 µM (SK-OV-3 (ovarian cancer)): 16%
- GI50 (MOLM14 Wild type): 4.88 nM
- GI50 (MV4;11 cells; [2]): 1 nM
- GI50 (MOLM14 FLT3-ITD-D835Y): 1.87 nM
- GI50 (MDA-MB-231): 117 nM
- weights of the liver and the kidney (MDA-MB-231 xenograft): no significant difference
- weight loss or other signs of toxicity during the administration period (MV4-11 xenograft; 20 mg/kg oral once daily for 21 days): no weight loss or any other signs of toxicity
- day by which the tumor disappeared (MV4-11 xenograft; 20 mg/kg oral once daily, based on measured tumor volume): ≤ 14 days
- inhibition at 1 µM (PC3 (prostate cancer)): 40.7%
- times more sensitive against MV4-11 cells than K562 cell line (MV4-11 cells): 430 times
- GI50 (MV4-11 cells; Table 6, read-out: GI50 value (μM) MV4-11): 0.001 ± 0.0003 µM
- GI50 (MV4-11 cells; read-out: GI50 MV4-11 cells): 0.001 µM
- inhibition at 1 µM (A549 (lung cancer)): 2.05%
- GI50 [1]: 1.85 nM
